Test results taken from US7179823B1, “5-membered n-heterocyclic compounds with hypoglycemic and hypolipidemic activity” (Takeda Pharmaceutical Company Limited, priority 1999, dated 2007).
Read-outs that look alike come from different tables or passages of the source.

Assays:
[1] = target: T1, PPARγ-RXRα heterodimer (Homo sapiens, UniProt P37231); test: PPARγ-RXRα heterodimer ligand activity (luciferase reporter, PPARγ:RXRα:4ERPP/CHO-K1 cells); type: cell-based; details: 48 hours, concentration for 50% of the maximum fold induction
T1 construct: expressed in transfected cells; host or cells: CHO-K1
T1 sequence (P37231 1-477 isoform P37231-2): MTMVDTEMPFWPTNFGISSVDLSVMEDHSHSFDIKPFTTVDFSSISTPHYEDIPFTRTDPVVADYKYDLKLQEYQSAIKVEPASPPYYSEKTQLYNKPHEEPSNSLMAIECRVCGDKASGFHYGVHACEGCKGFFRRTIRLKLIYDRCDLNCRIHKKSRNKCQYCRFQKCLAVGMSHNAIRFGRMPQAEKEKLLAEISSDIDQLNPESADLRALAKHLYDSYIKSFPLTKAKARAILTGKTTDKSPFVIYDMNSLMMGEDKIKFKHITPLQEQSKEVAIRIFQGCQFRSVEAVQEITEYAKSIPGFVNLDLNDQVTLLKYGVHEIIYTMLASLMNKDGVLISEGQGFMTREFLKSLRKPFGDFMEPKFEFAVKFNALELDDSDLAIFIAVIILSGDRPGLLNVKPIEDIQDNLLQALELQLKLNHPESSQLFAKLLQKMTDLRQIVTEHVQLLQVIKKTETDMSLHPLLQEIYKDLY
T1 sequence (P19793 1-462 partner): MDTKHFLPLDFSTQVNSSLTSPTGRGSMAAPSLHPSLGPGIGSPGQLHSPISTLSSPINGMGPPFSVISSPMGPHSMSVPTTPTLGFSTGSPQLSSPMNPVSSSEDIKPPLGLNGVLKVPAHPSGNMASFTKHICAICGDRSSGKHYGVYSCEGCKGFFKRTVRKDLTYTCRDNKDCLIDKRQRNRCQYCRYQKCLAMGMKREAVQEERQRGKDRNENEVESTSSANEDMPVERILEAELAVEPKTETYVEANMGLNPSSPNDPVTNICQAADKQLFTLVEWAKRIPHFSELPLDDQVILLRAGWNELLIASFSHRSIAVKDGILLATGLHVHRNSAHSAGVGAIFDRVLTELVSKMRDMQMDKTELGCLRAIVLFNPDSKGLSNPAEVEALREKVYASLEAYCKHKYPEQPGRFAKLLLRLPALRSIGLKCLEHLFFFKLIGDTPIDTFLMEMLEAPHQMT
Procedure: (PPARγ-RXRα Heterodimer Ligand Activity)
A PPARγ:RXRα:4ERPP/CHO-K1 cells obtained in Reference Example 5 described later were cultured in HAM F12 medium (produced by NISSUI SEIYAKU) containing 10% Fetal bovine serum (produced by Life Technologies, Inc., USA) and then inoculated to a 96-well white plate (produced by Corning Costar Corporation, USA) at the density of 2×10^4 cells/well, and cultured in a CO2 gas incubator at 37° C. overnight.
After washing the 96 well white plate with PBS (Phosphate-buffered saline), 90 μl of HAM F12 medium containing 0.1% fatty acid-free bovine serum albumin (BSA) and 10 μl of test compound were added, which was cultured in a CO2 gas incubator at 37° C. for 48 hours. After removing the medium, 40 μl of PIKKAGENE 7.5 (produced by Wako Pure Chemical Industries, Ltd.) was added. After stirring, the luciferase activity was determined using Lumistar (produced by BMG Labtechnologies GmbH, Germany).
A fold induction was calculated based on the luciferase activity of each test compound by taking the luciferase activity in the non-treatment group as 1. The values of the test compound concentration and the fold induction were analyzed using PRISM 2.01 (produced by GraphPad Software Inc. USA) to calculate the EC50 values, the effective concentration of a test compound for 50% of the maximum fold induction.
(Introduction of Human PPARγ- and RXRα-Expressing Plasmid and Reporter Plasmid into CHO-K1 Cell and Establishment of Expressed Cell)
After a CHO-K1 cell cultured in a 750 ml tissue culture flask (produced by Corning Costar Corporation, USA) containing HAM F12 medium (produced by NISSUI SEIYAKU) supplemented with 10% Fetal Bovine Serum (produced by Life Technologies, Inc., USA) was scraped by treating with 0.5 g/L trypsin-0.2 g/L EDTA (ethylenediaminetetraacetic acid) (produced by Life Technologies, Inc., USA), the cell was washed with PBS (phosphate-buffered saline) (produced by Life Technologies, Inc., USA), centrifuged (1000 rpm, 5 minutes), and then suspended in PBS. Subsequently, a DNA was introduced into the cell under the condition shown below using GENE PULSER (produced by Bio-Rad Laboratories, USA).
Namely, to a cuvette having a 0.4 cm gap, added were 8×10^6 cells and 10 μg of plasmid pVgRXR2-hPPAR γ obtained in Reference Example 3 and 10 μg of reporter plasmid pGL3-4ERPP-TK neo obtained in Reference Example 4, which was subjected to electroporation at the voltage of 0.25 kV under the capacitance of 960 μF. Subsequently, the cell was transferred into a HAM F12 medium containing 10% Fetal Bovine Serum and cultured for 24 hours and then the cell was scraped again and centrifuged, and then suspended in HAM F12 medium containing 10% Fetal Bovine Serum supplemented with 500 μg/ml of GENETICIN (produced by Life Technologies, Inc., USA) and 250 μg/ml of ZEOCIN (produced by Invitrogen, USA) and diluted to the density of 10^4 cells/ml upon inoculation to a 96-well plate (produced by Corning Costar Corporation, USA), which was cultured in a CO2 gas incubator at 37° C., whereby obtaining a GENETICIN- and ZEOCIN-resistant transformant.
Subsequently, after the transformant cell line thus obtained was cultured in a 24-well plate (produced by Corning Costar Corporation, USA), selected was a cell line in which the luciferase was expressed and induced, i.e., PPARγ:RXRα:4ERPP/CHO-K1 cell by addition of 10 μM pioglitazone hydrochloride.

[2] = test system: KKA^y mice; test: Hypoglycemic and hypolipidemic actions in mice; type: in vivo; details: Mus musculus, po, 96 h, four days; for inhibition in vivo at 0.005 %: 0.005% in powdery diet; for inhibition in vivo at 0.001 %: 0.001% in powdery diet
Excerpt: Hypoglycemic and Hypolipidemic Actions in Mice
Test compounds were mixed in a powdery diet (CE-2, Japan Clea) at the concentration of 0.01% (compounds of Examples 12, 30, 89, 186), 0.005% (compounds of Examples 7, 80, 82, 181, 182, 184, 256, 262, 283), 0.001% (compounds of Examples 9, 104, 110, 155, 156, 160, 167, 169, 172, 174, 176, 189), or 0.0003% (compounds of Examples 38, 40, 44), and freely given to KKA^y mice (9 to 12 weeks old, 5 mice in a group), a model of obese and type 2 diabetes mellitus, for four days. During this period, water was given freely. Blood was sampled from orbital venous plexus, and glucose and triglyceride levels in plasma separated from blood were determined enzymatically using L type Wako Glu2 (Wako Pure Chemical Industries, Ltd.) or L type Wako TG•H (Wako Pure Chemical Industries, Ltd.), respectively.
In the Table, the value of each treatment group is represented as percent reduction compared with the non-treatment group.

[3] = percent reduction of plasma glucose compared with the non-treatment group, read-out: Hypoglycemic action (%)
[4] = percent reduction of plasma triglyceride compared with the non-treatment group, read-out: Hypolipidemic action (%)

Row | EC50 [1] [nM] | melting point [°C] | SMILES | inhibition in vivo at 0.005 % [2, 3] [%] | inhibition in vivo at 0.005 % [2, 4] [%] | inhibition in vivo at 0.001 % [2, 3] [%] | inhibition in vivo at 0.001 % [2, 4] [%]
1 | 2 | – | CCOC(=O)CCc1cn(Cc2ccc(OCc3nc(-c4ccco4)oc3C)cc2)nc1-c1ccc(F)cc1 [Example 104, ethyl 3-[3-(4-fluorophenyl)-1-[4-[2-(2-furyl)-5-methyl-4-oxazolylmethoxy]benzyl]-1H-pyrazol-4-yl]propionate] | – | – | 43 | 42
2 | 3.5 | 153 to 154 | CCCc1nn(Cc2ccc(OCc3nc(-c4ccccc4)oc3C)cc2)cc1CCC(=O)O [Example 110, 3-[1-[4-(5-methyl-2-phenyl-4-oxazolylmethoxy)benzyl]-3-propyl-1H-pyrazol-4-yl]propionic acid] | – | – | 50 | 70
3 | 53 | 126 to 127 | CCOc1nn(Cc2ccc(OCc3cn(-c4ccccn4)nc3C)cc2)cc1CCC(=O)O [Example 256, 3-[3-ethoxy-1-[4-(3-methyl-1-(2-pyridyl)-1H-pyrazol-4-ylmethoxy]benzyl]-1H-pyrazol-4-yl]propionic acid] | 57 | 16 | – | –

More lines, now with the values behind:

Row | SMILES | EC50 [1] [nM] | melting point [°C] | inhibition in vivo at 0.005 % [2, 3] [%] | inhibition in vivo at 0.005 % [2, 4] [%] | inhibition in vivo at 0.001 % [2, 3] [%] | inhibition in vivo at 0.001 % [2, 4] [%]
4 | Cc1oc(-c2ccccc2)nc1COc1ccc(Cn2cc(CCC(=O)O)c(-c3ccccc3)c2)cc1 [Example 7, 3-[1-[4-(5-methyl-2-phenyl-4-oxazolylmethoxy)benzyl]-4-phenyl-3-pyrrolyl]propionic acid] | 3.8 | 124 to 125 | 54 | 60 | – | –
5 | Cc1oc(-c2ccco2)nc1COc1ccc(Cn2cc(CCC(=O)O)c(-c3ccccc3)c2)cc1 [Example 8, 3-[1-[4-[2-(2-furyl)-5-methyl-4-oxazolylmethoxy]benzyl]-4-phenyl-3-pyrrolyl]propionic acid] | 2.7 | 86 to 87 | – | – | – | –
6 | Cc1oc(-c2ccco2)nc1COc1ccc(Cn2cc(CCC(=O)O)c(-c3ccccc3)n2)cc1 [Example 80, 3-[1-[4-[2-(2-furyl)-5-methyl-4-oxazolylmethoxy]benzyl]-3-phenyl-1H-pyrazol-4-yl]propionic acid] | 2.5 | 152 to 153 | 42 | 22 | – | –
7 | Cc1oc(-c2cccs2)nc1COc1ccc(Cn2cc(CCC(=O)O)c(-c3ccccc3)n2)cc1 [Example 82, 3-[1-[4-[5-methyl-2-(2-thienyl)-4-oxazolylmethoxy]benzyl]-3-phenyl-1H-pyrazol-4-yl]propionic acid] | 1.4 | 159 to 160 | 50 | 58 | – | –
8 | Cc1oc(-c2ccccc2)nc1COc1ccc(Cn2cc(CCC(=O)O)c(-c3ccc(F)cc3)n2)cc1 [Example 100, 3-[3-(4-fluorophenyl)-1-[4-(5-methyl-2-phenyl-4-oxazolylmethoxy)benzyl]-1H-pyrazol-4-yl]propionic acid] | 1.8 | 139 to 140 | – | – | – | –
